Where two headings read alike, the source gives them in different places.
Experiments:
[1] = test system: Human umbilical vein endothelial cells (HUVEC); experiment: HUVEC proliferation assay (tritiated thymidine uptake); format: cell-based; details: for inhibition of HUVEC proliferation in vitro, dose dependent (in words): dose dependent manner
Procedure: Human umbilical vein endothelial cells (HUVEC) were seeded in 96-well flat bottomed tissue culture plates at a density of 2.5-5×10^4 cells/well and treated with various dilutions of agents. Cells were cultured in RPMI medium containing 20% FCS, Penicillin/Streptomycin in a 5% CO2 atmosphere at 37° C. After 24 to 48 hours of incubation, cells were pulsed with 1 μCi of tritiated thymidine for 6 hours. The pulsed cells were trypsinised to detach from the wells and then harvested in a TOMTEC Cell Harvester onto glass fibre filters, which were dried and immersed in scintillation fluid and counted in a Wallac Microbeta scintillation counter. The results were reported as mean cpm±SD.

[2] = test system: chicken chorioallantoic membrane (CAM); experiment: Chicken chorioallantoic membrane (CAM) assay for angiogenesis; format: in vivo; details: for Vein length (%) / Artery length (%) / Total vessel length (%) / Vein Diameter (%): % of control, Mean ± SEM
Procedure: Fertilised chicken eggs (HiChick Breeding Co, Kapunda, South Australia) were incubated for three days at 38° C. On Day 3 the embryos were cracked out of the egg and into a cup made of plastic piping, with plastic film stretched over the top to form a hammock for the egg to be suspended in. Two ml of DMEM containing penicillin and streptomycin was added to each cup prior to the egg being added. A petri dish on the top maintained sterility. Incubation continued in a humidified 37° C. incubator.
On Day 4 the chorioallantoic membrane (CAM) begins to grow, and pictures were taken of each embryo at ×5 to measure the CAM area using image analysis software (Video Pro 32, Leading Edge Pty Ltd, South Australia).
Embryos were then grouped according to their CAM area, with a control embryo in each for comparison. Grouping is critical as in these early developmental stages changes in the CAM growth are dramatic. Relatively small differences in size on Day 4 translate to large differences in the CAM on Day 5. Treatment was applied in methylcellulose discs, which were dried under vacuum overnight. The methylcellulose discs were applied to the top of the CAM, and at the beginning of treatment were at least three to four-fold bigger than the CAM area, meaning treatment covered the entire CAM surface.
On Day 5 skim milk with contrast medium was injected into the CAM. Pictures were then taken at various levels of magnification up to ×63. Quantitative measurements were made from ×5 pictures. CAM area, and vein and artery lengths were measured using image analysis (Video Pro 32, Leading Edge Pty Ltd, South Australia). Relative vessel lengths were then calculated as the total length/CAM area. Statistical analysis was made using SigmaStat and OneWay ANOVA with p<0.05 as the level of significance.

[3] = 50 μM, tritiated thymidine uptake
[4] = 100 μM, tritiated thymidine uptake
[5] = 200 μM, tritiated thymidine uptake
[6] = 400 μM, tritiated thymidine uptake
[7] = 800 μM, tritiated thymidine uptake

## CCC(C)CCCCCCCCCCC(=O)O (stereo not drawn) [12-MTA, 12-methyltetradecanoic acid]
[1]; 50 μM, percentage of control cells with no added agent (Table 1)
  % Inhibition of HUVEC proliferation: 13.3%
[1]; [3]
  Average: 18781.3 cpm
  Sample 1: 19272 cpm
  Sample 2: 19942 cpm
  Sample 3: 17130 cpm
[1]; [4]
  Average: 17593.0 cpm
  Sample 1: 20367 cpm
  Sample 2: 16963 cpm
  Sample 3: 15449 cpm
[1]; [5]
  Average: 15707.7 cpm
  Sample 1: 18491 cpm
  Sample 2: 15435 cpm
  Sample 3: 13197 cpm
[1]; 400 μM concentration, tritiated thymidine uptake
  HUVEC proliferation (in words): inhibited
[1]; [6]
  Average: 12104.7 cpm
  Sample 1: 12558 cpm
  Sample 2: 13837 cpm
  Sample 3: 9919 cpm
[1]; 800 μM
  microscopic examination of the cells: appearance of apoptotic cells
[1]; [7]
  Average: 9.0 cpm
  Sample 1: 11 cpm
  Sample 2: 7 cpm
  Sample 3: 9 cpm
[1]; Homo sapiens, HUVEC, 50 μM, percentage of control cells with no added agent (Table 1)
  inhibition at 50 µM: 13%
[1]; Homo sapiens, HUVEC, 100 μM, percentage of control cells with no added agent (Table 1)
  inhibition at 100 µM: 18.7%
[1]; Homo sapiens, HUVEC, 200 μM, percentage of control cells with no added agent (Table 1)
  inhibition at 200 µM: 27.5%
[1]; Homo sapiens, HUVEC, 400 μM concentration, percentage of control cells with no added agent (Table 3), read-out: Percentage inhibition of HUVEC proliferation
  inhibition at 400 µM: 32%
[1]; Homo sapiens, HUVEC, 400 μM, percentage of control cells with no added agent (Table 1), read-out: % Inhibition of HUVEC proliferation
  inhibition at 400 µM: 44.1%
[1]; Homo sapiens, HUVEC, 800 μM, percentage of control cells with no added agent (Table 1)
  inhibition at 800 µM: 99%
[1]; Homo sapiens, HUVEC, 24 h, 100 μM 12-MTA, 24 hours (Table 2)
  inhibition at 100 µM: 24.8%
[1]; Homo sapiens, HUVEC, 24 h, 200 μM 12-MTA, 24 hours (Table 2)
  inhibition at 200 µM: 30.2%
[1]; concentrations between 50 to 400 μM
  cell viability: good viability
[1]
  inhibition of HUVEC proliferation in vitro, dose dependent (in words): inhibited in a dose response manner
[1]; listed as 12-methyl tetradecanoic acid
  inhibition of HUVEC proliferation in vitro, dose dependent (in words): inhibit the proliferation
[2]; 25 nmol on methylcellulose disc
  Vein length (%): 82.1 ± 22.9%
[2]; 25 nmol
  Artery length (%): 81.8 ± 11.6%
  Total vessel length (%): 79.8 ± 15.0%
  Vein Diameter (%): 89.3 ± 25.2%
[2]; 50 nmol on methylcellulose disc
  Vein length (%): 74.4 ± 20.8%
[2]; 50 nmol
  Artery length (%): 78.8 ± 12.2%
  Total vessel length (%): 74.9 ± 14.7%
  Vein Diameter (%): 59.1 ± 11.2%
[2]; 100 nmol on methylcellulose disc
  Vein length (%): 46.0 ± 8.7^1%
[2]; 100 nmol
  Artery length (%): 63.8 ± 4.0^1%
  Total vessel length (%): 54.9 ± 4.3^1%
  Vein Diameter (%): 45.9 ± 10.0^1%
[2]; 500 nmol
  number of branching capillaries sprouting from the main vessels: reduction
  vessel area: diminished
[2]; chicken embryo, CAM assay
  cytotoxicity to the embryo: not cytotoxic
[2]; dose dependent manner
  inhibition of angiogenesis in the CAM assay, dose dependent (in words): inhibit angiogenesis
[2]; lowest dose (25 nmol)
  effect of the lowest dose on vein length, artery length, total vessel length and vein diameter (in words): inhibited

Reference: patent publication US20050143463A1, “Method of inhibiting angiogenesis” (THE QUEEN ELIZABETH HOSPITAL RESEARCH FOUNDATION INC., priority 2002, published 2005)
